Assay results reported in patent US12605368B2, “Suppression of neuroinflammation and composition and method therefor” (Kyoto University, priority 2020, dated 2026).

Legend:
[1] = target: DYRK1A (Homo sapiens, UniProt Q13627); experiment: in vitro kinase activity assay against DYRK1A; format: biochemical
Description: In Vitro Enzyme Activity Assay
The in vitro kinase activity assay was performed as described previously (Ogawa et al., Nat Commun 1, 86, 2010).

[2] = tested on: microglial cells BV-2; experiment: Western blotting of BV-2 cells treated with compound; format: cell-based; conditions: time-dependently and dose-dependently, FIG. 1A
Description: (§1) Microglial cell line BV-2 was maintained in high glucose Dulbecco's modified Eagle's medium (DMEM) (Nacalai Tesque) supplemented with 10% fetal bovine serum (Nichirei Bioscienses), 100 U/mL penicillin, and 100 μg/mL streptomycine. Primary hippocampal and cortical neuronal cultures were prepared from embryonic day 18 mice and maintained in Neurobasal medium (Life Technologies) supplemented with 2% B27 supplement, 100 U/mL, penicillin, 100 μg/mL streptomycin, and 0.5 mM L-glutamine. Dopaminergic neuronal cultures were prepared from ventral midbrain of embryonic day 13 mice and maintained in Neurobasal medium (Life Technologies) supplemented with 10% fetal bovine serum, 2% B27 supplement, 10 ng/mL GDNF, 100 U/mL penicillin, and 100 μg/mL streptomycin. For depletion of glial cells, 5 μM cytosine β-D-arabinofuranoside, 10 μM 5-fluorouracil, and 10 μM uridine (all from Sigma-Aldrich) were added at 2-day culture. Mixed glial cultures were obtained from new born murine pups (P1 to P4) and maintained in T75 or T175 flask. Media were changed every 3-4 days until the cells get confluent. Microglia were obtained either by shaking vigorously or Cd11b-positive selection (Invitrogen). For co-culture experiments, murine glial cell cultures were prepared from MGE (Medial Ganglionic Eminence) of embryonic day 13 and cultured in PLL-coated dish. Cultures were passaged twice with trypsin, and used for co-cultured assay with iPSC-derived neurons. 1039A1 iPS cells were established and maintained as described previously (Nakagawa et al., Sci Rep 4, 3594, 2014). […]
Total protein was extracted from cell culture samples using RIPA buffer (Wako) containing protease inhibitor cocktail (Nacalai Tesque) and phosphatase inhibitor cocktail (Nacalai Tesque). After 15 minutes of centrifugation at 15,000 rpm at 4° C., supernatants were collected and protein concentrations were measured using a Pierce 660 nm Protein Assay Kit (Thermo Scientific). […]

[3] = tested on: Nrf2 in Cd11b-positive microglial cells; experiment: Nrf2 immunocytochemistry in glial cells (nuclei of Cd11b-positive cells), with p21 siRNA; format: cell-based, murine; conditions: for Nrf2 expression: data not shown; for expression of Nrf2 in Cd11b-positive microglial cells: glial cells, FIGS. 1B and 1C
Description: Cells were plated in 96-well purecoat amine coated plates and treated as desired for each specific experiment. After immunolabeling was complete, automated image acquisition (with twenty-fold magnification of objective lens, 2×2 CCD binning, twenty-five fields per well) and analysis was performed using Opera Phenix (manufactured by PerkinElmer Co., Ltd.) equipped with Harmony software. Image acquisition was performed using a fluorescence microscope (BZ-9000, manufactured by Keyence corporation) or a confocal microscope (SP-8, manufactured by Leica) as well.
Microglial cell line BV-2 was maintained in high glucose Dulbecco's modified Eagle's medium (DMEM) (Nacalai Tesque) supplemented with 10% fetal bovine serum (Nichirei Bioscienses), 100 U/mL penicillin, and 100 μg/mL streptomycine. Primary hippocampal and cortical neuronal cultures were prepared from embryonic day 18 mice and maintained in Neurobasal medium (Life Technologies) supplemented with 2% B27 supplement, 100 U/mL, penicillin, 100 μg/mL streptomycin, and 0.5 mM L-glutamine. Dopaminergic neuronal cultures were prepared from ventral midbrain of embryonic day 13 mice and maintained in Neurobasal medium (Life Technologies) supplemented with 10% fetal bovine serum, 2% B27 supplement, 10 ng/mL GDNF, 100 U/mL penicillin, and 100 μg/mL streptomycin. For depletion of glial cells, 5 μM cytosine β-D-arabinofuranoside, 10 μM 5-fluorouracil, and 10 μM uridine (all from Sigma-Aldrich) were added at 2-day culture. Mixed glial cultures were obtained from new born murine pups (P1 to P4) and maintained in T75 or T175 flask. Media were changed every 3-4 days until the cells get confluent. Microglia were obtained either by shaking vigorously or Cd11b-positive selection (Invitrogen). For co-culture experiments, murine glial cell cultures were prepared from MGE (Medial Ganglionic Eminence) of embryonic day 13 and cultured in PLL-coated dish. Cultures were passaged twice with trypsin, and used for co-cultured assay with iPSC-derived neurons. 1039A1 iPS cells were established and maintained as described previously (Nakagawa et al., Sci Rep 4, 3594, 2014). Induction of dopaminergic precursor cells was performed as described previously (Doi et al., Stem Cell Reports 2, 337-350, 2014, Kikuchi et al., Nature 548, 592-596, 2017). Briefly, hiPS cells 1039A1 were plated on Laminin511, and differentiated in GMEM medium containing 8% KSR, Y27632 (Wako), A-83-01 (Wako), LDN193178 (STEMGENT). Purmorphamine (Wako), FGF8 (Wako, from day 1 to day 7), and CHIR99021 (Wako, from day 3 to day 12) were added. After cell sorting of Corin+ cells, cells were replated onto low attachment 96-well plates for neurosphere cultures and maintained in neurobasal medium with B27 supplement, 2 mM L-glutamine (Invitrogen), 10 ng/mL GDNF, 200 μM ascorbic acid, 20 ng/mL BDNF (all from Wako), and 400 μM dbcAMP (Sigma-Aldrich) for further 2 weeks. To avoid apoptosis, 30 μM of Y27632 (Wako) was added at the initial plating.
Cells were fixed with 4% paraformaldehyde for 10 minutes, followed by permealization with 0.2% TritonX-100 for 10 minutes. After washing in PBS, cells were blocked in 5% normal donkey serum (Jackson ImmunoResearch Laboratories)/1% BSA (SIGMA A7906)/PBS and then labeled with the primary antibodies. After washing with PBS, primary antibodies were labeled with the corresponding fluorescence-conjugated secondary antibodies. Hoechst 33342 was used to detect nuclei.
Cells were visualized with anti-Nrf2 (pseudo-color), Cd11b (magenta, microglia), and GFAP (green, astrocyte) antibodies. Scale bar=25 μm.
Glial cells were treated with the compounds 1 and 2 for indicated periods and at indicated concentrations.

[4] = tested on: microglia; experiment: cytokine production of microglia upon LPS stimulation (qPCR, ELISA), with Nrf2 siRNA; format: cell-based; conditions: for up-regulation of proinflammatory cytokine gene expression by LPS stimulation: qPCR and ELISA, FIGS. 2A, 2B; for up-regulation of proinflammatory cytokine gene expression by LPS stimulation / induction of expression of several chemokines and iNOS mRNA: LPS stimulation; for induction of expression of several chemokines and iNOS mRNA: FIG. 2A
Description: Total RNA was extracted with RNeasy kit (Qiagen) followed by cDNA synthesis using iScript (Bio-Rad). Quantitative PCRs were carried out with SYBR green ExTaq (TaKaRa). Primers for genes were designed by using PrimerBank (Wang et al., 2012).
Studies were made on whether the compounds 1 and 2 would suppress cytokine production of microglia.
In the cells treated with Nrf2 siRNA, the suppression of cytokine production was not observed. *P<0.05.

[5] = tested on: iPSC-derived DA neurons transplanted in striatum; experiment: transplantation of hiPSC-derived DA neurons into murine striatum; format: in vivo, SCID mice; conditions: four weeks after the transplantation; mice; administered from one hour before surgery for four days
Description: (§2) C57black/6J mice, 8 to 9-week old, were intraperitoneally injected with LPS (O55:B5) (manufactured by Sigma, L2880) at 1 mg/kg once daily for four days. hiPSC-derived dopaminergic (DA) progenitors were transplanted in striatum of 4-week-old SCID mice. Drug treatment was performed one hour before LPS-injection or iPSC transplantation.
The compound 1 was initially dissolved in DMSO at a concentration of 100 mg/mL and diluted to desired concentration with 10% Tween 80 (polysorbate 80 (HX2), manufactured by HOF Corporation) in physiological saline solution, and subcutaneously delivered in a volume of 0.05 mL/kg. The compound 2 was suspended in 0.5% carboxymethylcellulose (Nacalai Tesque) and orally administered in a volume of 0.1 mL/kg at desired concentration. Drug-treated animals were anesthetized with isofluorane for blood sampling and subsequently perfused with physiological saline solution. […] Concentration of target compounds or dopamine in serum and brain homogenates were analyzed by LC/MS using an Agilent 6420 Q-TOF mass spectrometer with an Agilent 1290 Nano-flow HPLC system (Agilent Technologies). […]
Arrows indicate iPSC-derived cells that are co-labeled by TH or Nurr1 (both are dopaminergic markers). […] The transplanted DA neurons were identified by hNuclei staining and survived iPSC-derived DA neurons were quantified with co-staining of TH and Nurr1 dopaminergic markers. […]

[6] = tested on: mice injected with LPS; experiment: LPS-induced neuro-inflammation and neurodegeneration in mice; format: in vivo, C57black/6J mice
Description: as §2
The compound 1 was initially dissolved in DMSO at a concentration of 100 mg/mL and diluted to desired concentration with 10% Tween 80 (polysorbate 80 (HX2), manufactured by HOF Corporation) in physiological saline solution, and subcutaneously delivered in a volume of 0.05 mL/kg. The compound 2 was suspended in 0.5% carboxymethylcellulose (Nacalai Tesque) and orally administered in a volume of 0.1 mL/kg at desired concentration. Drug-treated animals were anesthetized with isofluorane for blood sampling and subsequently perfused with physiological saline solution. Brain homogenates were prepared using the Beads Crusher μT-12 system (TAITEC) in five-volume of physiological saline solution. Concentration of target compounds or dopamine in serum and brain homogenates were analyzed by LC/MS using an Agilent 6420 Q-TOF mass spectrometer with an Agilent 1290 Nano-flow HPLC system (Agilent Technologies). For measurement of dopamine, 50 mg/mL ascorbic acid was added to avoid oxidization.
Adult mouse brains were perfused with PBS then fixed in 4% paraformaldehyde, and 40-μm sections were cut with a vibratome (Leica) or 20-μm sections with a cryostat (Leica) after equilibrating in 30% sucrose/PBS. After antigen retrieval using HistoOne (Nacalai Tesque), tissues were stained with indicated antibodies.
LPS was intraperitoneally administered to mice to induce neuro-inflammation. Drug (the compound 2) was administered one hour before the LPS injection to the mice. The drug was orally administered at a indicated dose once daily.
Glial activation and cytokine production were evaluated at day 1 after the administration. Degeneration of dopaminergic nerves were evaluated at day 7 and day 14 (FIGS. 4B and 4C). […]
Animals, N=5 to 6, were analyzed regarding each condition. […]

[7] = tested on: hiPSC-derived dopaminergic neuron progenitors; experiment: co-culture of hiPSC-derived dopaminergic neuron progenitors with murine glia under H2O2 oxidative stress; format: cell-based, human; conditions: H2O2 treatment
Description: as §1, with “(Invitrogen).” for “(Invitrogen). For co-culture experiments, murine glial cell cultures were prepared from MGE (Medial Ganglionic Eminence) of embryonic day 13 and cultured in PLL-coated dish. Cultures were passaged twice with trypsin, and used for co-cultured assay with iPSC-derived neurons. 1039A1 iPS cells were established and maintained as described previously (Nakagawa et al., Sci Rep 4, 3594, 2014).”
The neuronal survival was evaluated according to the number of human nuclei by immunostaining (FIGS. 5A and 5B).
Dopaminergic markers of Nurr1 and TH were evaluated by qPCR (FIG. 5C). […]

SMILES | IC50 [1] [nM] | Nrf2 (Western blotting) [2] | cyclin D1 (Western blotting) [2] | p21 (Western blotting) [2] | Nrf2 expression ([3]; control siRNA-treated cells) | expression of Nrf2 in Cd11b-positive microglial cells [3] | Nrf2 expression ([3]; p21 siRNA-treated cells) | up-regulation of proinflammatory cytokine gene expression by LPS stimulation [4] | induction of expression of several chemokines and iNOS mRNA ([4]; qPCR) | suppression of cytokine production ([4]; cells treated with Nrf2 siRNA, qPCR, FIG. 2C) | survival rate of iPSC-derived DA neurons [5] | loss of dopaminergic neurons (TH-positive cells in SNpc) ([6]; LPS-injected mice, day 7 and day 14, FIGS. 4B and 4C) | cytokine production ([6]; qPCR and ELISA, striatum tissues at day 1, oral once daily, FIGS. 4E and 4F) | glial activation ([6]; qPCR on striatum tissues at day 1 from last LPS injection, oral once daily, FIG. 4D) | survival of DA neurons ([7]; co-culture with glia, FIGS. 5A to 5C) | protection of neurons ([7]; without glia)
c1cncc(-c2ccc3[nH]ncc3c2)c1 [Compound 1] | 77 | up-regulated | up-regulated | up-regulated | increased | induced | did not increase | suppressed effectively | also suppressed | not observed | – | – | – | – | – | –
CNC1/C(=C/C(C)=O)Sc2ccc3occc3c21 (stereo not shown) [Compound 2] | 32.9 | – | – | – | increased | induced | did not increase | suppressed effectively | also suppressed | – | improves | rescued | suppressed | suppressed | increased depending on the added amount | did not occur
